Assay: Dissociation kinetics of Mn(II) complexes, transmetalation with Zn(II) (T2 relaxation)
Type: physicochemical
Protocol: The transmetalation reaction of MnL2 and MnL3 (1.4 mM) was monitored in the presence of 10, 20, 30, and 40 mol equiv of Zn(II) ions, by measuring water proton T2 relaxation times (60 MHz) as a function of time at 25 °C and in 0.15 M NaCl, in the pH range 4.9–6.0 (4.9, 5.0, 5.2, 5.5, and 6.0). To control pH, 50 mM N-methyl-piperazine (pH 4.9–5.5) or 50 mM MES (2-(4-morpholino)ethane-sulfonic acid) buffer (pH 5.7–6.0) was used. Transmetalation of MnL2 (0.3 mM) was also investigated in the presence of 10, 20, 30, and 40 mol equiv of Cu(II) ions, by monitoring the UV–vis absorbance at 274.0 nm as a function of time at 25 °C and in 0.15 M NaCl, in the pH range 4.7–5.0 (in 75 mM 1,4-dimethyl piperazine (DMP) buffer). No oxidation of the samples was observed. The program OriginPro 9 was used for the fitting of experimental data.
The dissociation kinetics was followed through monitoring Mn(II) release by water proton T2 measurements, at pH […], in the presence of 10- to 40-fold excess of Zn(II) and through UV–vis measurements in the presence of 10- to 40-fold excess of Cu(II) at pH 4.7–5.0 (only for MnL2). The observed dissociation rate constants, kobs, increase with increasing H^+ ion concentration (Figures 4, left and S20). They remain independent of Zn(II) concentration (Figures S18 and S19), but do show dependence on Cu(II) concentration (Figure S21).
In excess of the exchanging metal ion, the reaction is of pseudo-first order, and the rate is proportional to the total MnL2 or MnL3 concentration (eq 1), where kobs is the pseudo-first-order rate constant. [drawing 4] 1 In general, different dissociation pathways can coexist, implying the participation of protons and/or the exchanging metal ion,[47] as illustrated in Figure 5.
Based on this scheme, the overall rate for either Zn(II) or Cu(II) transmetalation can be given by eq 2, where M = Zn^2+ or Cu^2+ (for clarity, charges of the complexes are omitted). [drawing 5] 2 Here, the first and second terms correspond to the spontaneous dissociation of the nonprotonated and the monoprotonated complexes, respectively, the third term describes the proton-assisted dissociation of the monoprotonated complex, and the last two terms refer to the spontaneous dissociation of the dinuclear complex and metal-assisted dissociation of the monoprotonated MnL2 or MnL3 complex. [MnL]tot describes the total concentration of Mn(II) chelates ([MnL]tot = [MnL] + [MnHL] + [ZnLMn]). Since no obvious Zn(II) dependence (for any of the two systems) was observed, only the spontaneous and proton-assisted dissociation pathways were taken into consideration. Consequently, the observed rate constants can be expressed as in eq 3 with k0 = kMnL, k1 = kMnHL·KMnHL, and k2 = ^HkMnHL·KMnHL. [drawing 6] 3 The kobs rate constants were fitted to eq 3, and the calculated parameters are listed in Table 5 for the Zn(II) exchange. During the fitting procedure, KMnHL was fixed to the value obtained from the pH-potentiometric titrations.

[1] = Zn(II) transmetalation, 25 °C, 0.15 M NaCl, pH 4.9–6.0

SMILES	dissociation half-life t1/2 (Mn(II) complex, t1/2 = ln 2/kobs calculated for pH 7.4, Zn(II))	k0 (spontaneous dissociation of the nonprotonated complex) [1]	k2 (proton-assisted dissociation of the monoprotonated complex) [1]
O.[Mn+2].c1ccc(CN2CCOCCOCCNCc3cccc(n3)C2)nc1 [MnL2]	10.4 min	(1.1 ± 0.3) × 10^–3 s^–1	(4.5 ± 0.8) × 10^7 M^–2 s^–1
O.[Mn+2].c1cc2nc(c1)CN(Cc1nc3ccccc3[nH]1)CCOCCOCCNC2 [MnL3]		(1.9 ± 0.3) × 10^–3 s^–1	
